ChEMBL document CHEMBL1136948, “Non-nucleoside inhibitors of HCV NS5B polymerase. Part 1: Synthetic and computational exploration of the binding modes of benzothiadiazine and 1,4-benzothiazine HCV NS5b polymerase inhibitors” (Bioorg Med Chem Lett, 2009)

What was measured:
Hepatitis C virus [1] = test: Inhibition of HCV 1b NS5B polymerase; type: organism-based, Hepatitis C virus subtype 1b
Hepatitis C virus [2] = test: Antiviral activity against HCV 1b replication in human 2209-23 cells assessed as [3H]thymidine incorporation into cellular DNA by scintillation proximity assay; type: functional, organism-based, Hepacivirus hominis; details: genotype 1b
Hepatitis C virus [3] = test: Inhibition of HCV 1b J4 NS5B Cdelta 21polymerase over expressed in Escherichia coli assessed as [alpha33P]UTP incorporation; set-up: species or system Hepatitis C virus subtype 1b
Hepatitis C virus [4] = test: Antiviral activity against HCV in human HuH7 cells by replicon assay; type: functional, organism-based, Hepacivirus hominis; details: Huh-7
[5] = Apparent permeability from basolateral to apical side of human Caco-2 cells after 21 days
[6] = Apparent permeability from apical to basolateral side of human Caco-2 cells after 21 days
[7] = Apparent permeability across human Caco-2 cells after 7 days; type: ADME, cell-based

Compound	IC50 (Hepatitis C virus [1]) [µM]	EC50 (Hepatitis C virus [2]) [µM]	other results
CC(C)CCn1c(=O)c(C2=NS(=O)(=O)c3ccccc3N2)c(O)c2ccccc21	1.1	0.87	IC50 (Hepatitis C virus [3]): 0.03 µM
CC(C)CCn1c(=O)c(C2=NS(=O)(=O)c3ccccc3N2)cc2ccccc21	682	–	–
CC(C)CCn1cc(C2=NS(=O)(=O)c3ccccc3N2)c(=O)c2ccccc21	> 1000	–	–
O=c1c(C2=Nc3ccccc3S(=O)(=O)N2)c(O)c2cc(F)ccc2n1CCC1CC1	0.1	0.26	IC50 (Hepatitis C virus [4]): 0.04 µM; IC50 (Hepatitis C virus [3]): 0.01 µM
O=S1(=O)N=C(c2nc(Cc3ccc(F)cc3)c3ccccc3c2O)c2ccccc21	2.2	0.44	–
O=S1(=O)C=C(c2nc(Cc3ccc(F)cc3)c3ccccc3c2O)Nc2ccccc21	6.9	7.6	–
CC(C)CCn1c(=O)c(C2=CS(=O)(=O)c3ccccc3N2)c(O)c2ccccc21	2.3	2.5	–
O=c1c(C2=CS(=O)(=O)c3ccccc3N2)c(O)c2cc(F)ccc2n1Cc1ccc(F)c(F)c1	1.2	1.5	–
Cc1cc(Cn2c(=O)c(C3=CS(=O)(=O)c4ccccc4N3)c(O)c3cc(F)ccc32)ccc1F	0.4	0.8	Papp B→A [5]: 5.3 ×10⁻⁶ cm/s; Papp A→B [6]: 0.5 ×10⁻⁶ cm/s
N#Cc1cccc(Cn2c(=O)c(C3=CS(=O)(=O)c4ccccc4N3)c(O)c3cc(F)ccc32)c1	37	–	–
CC(C)CCn1c(=O)c(C2=CS(=O)(=O)c3ccccc3N2)cc2ccccc21	868	–	–
O=c1c(C2=CS(=O)(=O)c3ccccc3N2)c(O)c2ccccc2n1Cc1ccc(F)cc1	0.72	0.79	Papp [7]: 4.4 ×10⁻⁶ cm/s
Cc1ccc2c(c1)c(O)c(C1=CS(=O)(=O)c3ccccc3N1)c(=O)n2Cc1ccc(F)cc1	1.5	1.5	–
Cc1ccc2c(c1)c(O)c(C1=CS(=O)(=O)c3ccccc3N1)c(=O)n2CCC1CC1	1.3	0.64	Papp [7]: 9.4 ×10⁻⁶ cm/s
O=c1c(C2=CS(=O)(=O)c3ccccc3N2)c(O)c2cc(F)ccc2n1Cc1ccc(F)cc1	0.7	0.7	–
COc1ccc2c(c1)c(O)c(C1=CS(=O)(=O)c3ccccc3N1)c(=O)n2CCC1CC1	3.8	7.1	–
Cc1c(-c2ccccc2)c(O)c(C2=CS(=O)(=O)c3ccccc3N2)c(=O)n1CCC(C)C	87	–	–
O=c1c(C2=CS(=O)(=O)c3ccccc3N2)c(O)c2cc(F)ccc2n1CCC1CC1	1.1	1.2	Papp B→A [5]: 7.1 ×10⁻⁶ cm/s; Papp [7]: 6.4 ×10⁻⁶ cm/s; Papp A→B [6]: 0.6 ×10⁻⁶ cm/s
O=c1c(C2=CS(=O)(=O)c3ccccc3N2)c(O)c2cccnc2n1CCC1CC1	2.7	–	–
O=c1c(C2=CS(=O)(=O)c3ccccc3N2)c(O)c2cc(Cl)ccc2n1CCC1CC1	2.4	1.6	–
CN1C(c2nc(Cc3ccc(F)cc3)c3ccccc3c2O)=CS(=O)(=O)c2ccccc21	19.5	–	–
CC(C)CCn1c(=O)c(C2=CS(=O)(=O)c3ccccc3N2)c(O)c2cccnc21	1.4	–	–
O=c1c(C2=CS(=O)(=O)c3ccccc3N2)c(O)c2ccccc2n1Cc1ccccc1F	17.5	46	–
CC(C)CCn1c(=O)c(C2=CS(=O)(=O)c3ccccc3N2)c(O)c2cc(F)cnc21	0.83	8.6	–
